Data taken from patent US10766888B1, “HMOX1 inducers” (Mitobridge Inc., priority 2019, dated 2020).
Converted amounts (≈) assume the structure as drawn. Where two headings read alike, the source gives them in different places.

Assays:
hERG channel = hERG channel (Homo sapiens, UniProt Q12809); assay: hERG manual patch clamp assay; format: cell-based; conditions: HEK 293 cells stably expressing hERG channel, pH 7.35, 10 μM compound
Protocol: Cell Lines and Cell Culture
HEK 293 cell line stably expressing hERG channel (Cat # K1236) was purchased from Invitrogen. The cells were cultured in 85% DMEM, 10% dialyzed FBS, 0.1 mM NEAA, 25 mM HEPES, 100 U/mL Penicillin-Streptomycin and 5 μg/mL Blasticidin and 400 μg/mL Geneticin. Cells were split using TrypLE™ Express about three times a week, and maintained between ˜40% to ˜80% confluence. Before the assay, the cells were transferred onto the coverslips at 5×10^5 cells/per 6 cm cell culture dish and induced with doxycycline at 1 μg/mL for 48 hours.
• 1) External solution (in mM): 132 NaCl, 4 KCl, 3 CaCl2, 0.5 MgCl2, 11.1 glucose, and 10 HEPES (pH adjusted to 7.35 with NaOH) • 2) Internal solution (in mM): 140 KCl, 2 MgCl2, 10 EGTA, 10 HEPES and 5 MgATP (pH adjusted to 7.35 with KOH) • 3) hERG currents were tested in presence of 10 μM compound concentration with final concentration of DMSO of 0.1%. Experimental Procedure • 1) Removed the coverslip from the cell culture dish and placed it on the microscope stage in bath chamber. • 2) Located a desirable cell using the 10× objective. Located the tip of the electrode under the microscope using the 10× objective by focusing above the plane of the cells. Once the tip was in focus, advanced the electrode downwards towards the cell using the coarse controls of the manipulator, while simultaneously moving the objective to keep the tip in focus. • 3) When directly over the cell, switched to the 40× objective and used the fine controls of the manipulator to approach the surface of the cell in small steps. • 4) Applied gentle suction through the side-port of the electrode holder to form a gigaohm seal. • 5) Used the Cfast to remove the capacity current that was in coincidence with the voltage step. Obtained the whole cell configuration by applying repetitive, brief, strong suction until the membrane patch ruptured. • 6) Set membrane potential to −60 mV at this point to ensure that hERG channels were not • open. The spikes of capacity current should then be cancelled using the Cslow on the amplifier. 7) Set holding potential to −90 mV for 500 ms; recorded current at 50 kHz and filtered at 10 kHz. Leaking current was tested at −80 mV for 500 ms. • 8) The hERG current was elicited by depolarizing at +30 mV for 4.8 seconds and then the voltage was taken back to −50 mV for 5.2 seconds to remove the inactivation and observe the deactivating tail current. The maximum amount of tail current size was used to determine hERG current amplitude. • 9) Recorded current for 120 seconds to assess the current stability. Only stable cells with recording parameters above threshold were applied for the compound administrations. • 10) Firstly vehicle control was applied to the cells to establish the baseline. […] In order to ensure the good performance of cultured cells and operations, the positive control, Dofetilide, with 5 dose concentration was also used to test the same batch of cells. Data Analysis
The following criteria were used to determine data acceptability. • 1) Initial seal resistance >1 GΩ; • 2) Leak currents <50% of the control peak tail currents at any time; • 3) The peak tail amplitude >250 pA; • 4) Membrane resistance Rm>500 MΩ; • 5) Access resistance (Ra)<10 MΩ; • 6) Apparent run-down of peak current <2.5% per min.
Data that met the above criteria for hERG current quality were further analyzed as the following steps. • 1) Percent hERG current inhibition was calculated using the following equation. • Note: PatchMaster or Clampfit software was used to extract the peak current from the original data.
[formula] • 2) The dose response curve of test compounds was plotted with percentage of hERG current inhibition against the concentration of test compounds using Graphpad Prism 6.0, and fit to a sigmoid dose-response curve with a variable slope.

[1] = PD study: compound concentration in mouse liver; format: in vivo, C57BL/6 mice; conditions: male, C57BL/6, mouse, 50 mg/kg, 50 mpk oral; for concentration at 3 h: read-out: Liver Conc uM (3 h); for concentration at 6 h: read-out: Liver Conc uM (6 h)
Protocol: 9-10 week old male C57BL/6 mice were dosed orally with 50 mg/kg of vehicle or compound formulated in 5% w/v tween 80 and 0.5% methyl cellulose. At indicated time points (3 and 6 hours or or 4 and 8 hours post-dosing as shown in the results below), whole blood was collected, animal was sacrificed and liver was collected. Blood samples were transferred to vials containing 4 μL of 10% w/v EDTA, centrifuged at 6000 rpm for 8 in below 10° C. to obtain plasma. Samples were frozen and later processed for HMOX1 protein levels as indicated below: […]

[2] = test system: Human Heme Oxygenase-1 (HMOX-1); assay: ELISA assay to measure human heme oxygenase-1 (HMOX-1) in HepG2 lysate; format: cell-based
Method in brief: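 HO-1 protein levels were read as fold change over DMSO-treated cells, with EC50 derived from these values. Quantitation used a chemiluminescent streptavidin-HRP capture ELISA, calibrated with an HO-1 standard series starting at 20 ng/ml, run at 20 °C. Samples were HepG2 lysates made with Triton X100/EDTA buffer and diluted 1:20.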

Kinetic solubility = format: physicochemical; conditions: Dulbecco's phosphate buffer saline (DPBS), aqueous buffer, kinetic from dmso stock, DPBS pH 7.4, 25° C., 200 μM test compound
Method in brief: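 Compound from 10 mM DMSO stock diluted to 200 μM final in DPBS pH 7.4 and, separately, in DMSO, in duplicate. Shaken 16 h at 25 °C, then centrifuged 20 min at 25 °C. Supernatant analysed by HPLC.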

[3] = HepG2, human HMOX1, as listed in Table 5, read-out: HMOX1 EC50 h
[4] = human HMOX1 protein level in HepG2 lysate, * = average of 2 or more EC50 determinations, NA = Not Active, read-out: EC50

Sequence of hERG channel (Q12809 whole entry): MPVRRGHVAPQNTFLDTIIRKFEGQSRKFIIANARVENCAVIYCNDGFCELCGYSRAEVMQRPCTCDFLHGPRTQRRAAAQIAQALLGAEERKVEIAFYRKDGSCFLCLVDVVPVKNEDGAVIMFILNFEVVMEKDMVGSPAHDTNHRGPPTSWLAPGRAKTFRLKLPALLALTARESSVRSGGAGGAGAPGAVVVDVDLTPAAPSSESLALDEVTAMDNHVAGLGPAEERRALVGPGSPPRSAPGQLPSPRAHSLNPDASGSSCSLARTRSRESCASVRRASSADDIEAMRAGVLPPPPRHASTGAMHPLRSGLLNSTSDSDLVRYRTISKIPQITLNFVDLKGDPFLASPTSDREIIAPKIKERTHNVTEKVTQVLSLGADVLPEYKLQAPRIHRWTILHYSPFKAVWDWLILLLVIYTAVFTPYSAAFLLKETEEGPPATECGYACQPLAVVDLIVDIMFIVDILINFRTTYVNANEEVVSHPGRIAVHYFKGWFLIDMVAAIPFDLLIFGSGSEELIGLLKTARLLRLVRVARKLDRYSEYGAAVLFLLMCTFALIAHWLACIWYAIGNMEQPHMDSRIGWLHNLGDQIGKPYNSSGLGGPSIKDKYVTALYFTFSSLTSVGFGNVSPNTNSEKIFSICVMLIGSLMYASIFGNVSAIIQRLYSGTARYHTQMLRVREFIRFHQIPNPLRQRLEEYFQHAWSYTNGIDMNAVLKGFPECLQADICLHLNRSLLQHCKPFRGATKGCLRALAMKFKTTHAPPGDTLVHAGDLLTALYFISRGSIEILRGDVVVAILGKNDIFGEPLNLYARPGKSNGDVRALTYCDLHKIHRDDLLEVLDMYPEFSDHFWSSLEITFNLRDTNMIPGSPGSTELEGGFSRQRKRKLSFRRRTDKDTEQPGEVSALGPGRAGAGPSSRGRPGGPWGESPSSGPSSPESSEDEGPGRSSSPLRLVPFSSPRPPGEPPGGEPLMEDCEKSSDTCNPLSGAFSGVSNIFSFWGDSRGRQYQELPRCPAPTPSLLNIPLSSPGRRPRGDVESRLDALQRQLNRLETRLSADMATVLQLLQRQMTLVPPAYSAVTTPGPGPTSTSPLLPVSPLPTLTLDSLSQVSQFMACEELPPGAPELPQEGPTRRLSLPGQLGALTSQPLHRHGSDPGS

concentration at 3 h [1] | concentration at 6 h [1] | EC50 [2, 3] | EC50 [2, 4] | solubility at 16 h (Kinetic solubility) | Maximum Fold induction ([2]; fold change of human HMOX1 protein level relative to DMSO control, HepG2) | Compound | inhibition at 10 µM (hERG channel)
217 µM | 162 µM | 2000 nM | 1300 nM | – | – | Cn1c(Nc2nc3ccc(OC(F)(F)F)cc3o2)nc2cc(C(=O)O)ccc21 [Example 44, 1-methyl-2-((6-(trifluoromethoxy)benzo[d]oxazol-2-yl)amino)-1H-benzo[d]imidazole-5-carboxylic acid] | 15%
– | – | – | 1000 nM | 7.3 µM (≈ 3.07 µg/mL) | – | Cn1c(Nc2nc3ccccc3o2)nc2cc(C(=O)NCCN3CCOCC3)ccc21 [Example 20, 2-(benzo[d]oxazol-2-ylamino)-1-methyl-N-(2-morpholinoethyl)-1H-benzo[d]imidazole-5-carboxamide] | 59%
– | – | – | 1600 nM | 11.3 µM (≈ 4.57 µg/mL) | – | Cn1c(Nc2nc3ccccc3o2)nc2cc(C(=O)NCCN3CCCC3)ccc21 [Example 28, 2-(benzo[d]oxazol-2-ylamino)-1-methyl-N-(2-(pyrrolidin-1-yl)ethyl)-1H-benzo[d]imidazole-5-carboxamide] | 64%
– | – | – | 1700 nM | 7.7 µM (≈ 3.62 µg/mL) | – | COCCOc1ccc2nc(Nc3nc4cc(C(=O)NCCOCCO)ccc4n3C)oc2c1 [Example 58, N-(2-(2-hydroxyethoxy)ethyl)-2-((6-(2-methoxyethoxy)benzo[d]oxazol-2-yl)amino)-1-methyl-1H-benzo[d]imidazole-5-carboxamide] | 11%
– | – | – | 2300 nM | 4.2 µM (≈ 1.88 µg/mL) | 6.25 fold | COCCNC(=O)c1ccc2c(c1)nc(Nc1nc3cc(OC(F)(F)F)ccc3[nH]1)n2C [Example 14, N-(2-methoxyethyl)-1-methyl-2-((5-(trifluoromethoxy)-1H-benzo[d]imidazol-2-yl)amino)-1H-benzo[d]imidazole-5-carboxamide] | 87%
– | – | – | 370 nM | 11.6 µM (≈ 5.05 µg/mL) | – | COCCn1c(Nc2nc3cc(OC(F)(F)F)ccc3[nH]2)nc2cc(C(=O)O)ccc21 [Example 75, 1-(2-methoxyethyl)-2-((5-(trifluoromethoxy)-1H-benzo[d]imidazol-2-yl)amino)-1H-benzo[d]imidazole-5-carboxylic acid] | 9%
– | – | – | 660 nM | < 5 µM | – | COCCNC(=O)c1ccc2c(c1)nc(Nc1nc3ccc(F)cc3o1)n2C [Example 69, 2-((6-fluorobenzo[d]oxazol-2-yl)amino)-N-(2-methoxyethyl)-1-methyl-1H-benzo[d]imidazole-5-carboxamide] | 38%
– | – | – | 1100 nM | 14.9 µM (≈ 5.61 µg/mL) | – | Cn1c(Nc2nc3ccc(C(F)(F)F)cc3o2)nc2cc(C(=O)O)ccc21 [Example 31, 1-methyl-2-((6-(trifluoromethyl)benzo[d]oxazol-2-yl)amino)-1H-benzo[d]imidazole-5-carboxylic acid] | 0%
– | – | – | 1400 nM | 9 µM (≈ 4.06 µg/mL) | – | CN(C)CC(=O)NCCONC(=O)c1ccc2c(c1)nc(Nc1nc3ccccc3o1)n2C [Example 121, 2-(benzo[d]oxazol-2-ylamino)-N-(2-(2-(dimethylamino)acetamido)ethoxy)-1-methyl-1H-benzo[d]imidazole-5-carboxamide] | 66%
63 µM | 5.4 µM | 1900 nM | 1900 nM | – | – | Cn1c(Nc2nc3cc(OC(F)(F)F)ccc3[nH]2)nc2cc(C(=O)O)ccc21 [Example 13, 1-methyl-2-((5-(trifluoromethoxy)-1H-benzo[d]imidazol-2-yl)amino)-1H-benzo[d]imidazole-5-carboxylic acid] | 34%
– | – | – | 800 nM | 8 µM (≈ 3.71 µg/mL) | – | Cn1c(Nc2nc3ccc(C(F)(F)F)cc3o2)nc2cc(C(=O)NCCOCCO)ccc21 [Example 34] | 61%
– | – | – | 2200 nM | 6.1 µM (≈ 2.5 µg/mL) | – | CC(O)COCCNC(=O)c1ccc2c(c1)nc(Nc1nc3ccccc3o1)n2C (centres unmarked) [Example 25] | 8%
– | – | – | 1200 nM | 4.7 µM (≈ 2.07 µg/mL) | – | COCCOc1ccc2nc(Nc3nc4cc(C(=O)NOCCO)ccc4n3C)oc2c1 [Example 128, N-(2-hydroxyethoxy)-2-((6-(2-methoxyethoxy)benzo[d]oxazol-2-yl)amino)-1-methyl-1H-benzo[d]imidazole-5-carboxamide] | 18%
– | – | – | 1300 nM | 7.1 µM (≈ 3.19 µg/mL) | – | CCn1c(Nc2nc3ccc(OC(F)(F)F)cc3o2)nc2cc(C(=O)NCCO)ccc21 [Example 86, 1-ethyl-N-(2-hydroxyethyl)-2-((6-(trifluoromethoxy)benzo[d]oxazol-2-yl)amino)-1H-benzo[d]imidazole-5-carboxamide] | 64%
– | – | – | 2000 nM | 8.6 µM (≈ 3.38 µg/mL) | – | Cn1c(Nc2nc3ccccc3o2)nc2cc(C(=O)NCC3(O)COC3)ccc21 [Example 26, 2-(benzo[d]oxazol-2-ylamino)-N-((3-hydroxyoxetan-3-yl)methyl)-1-methyl-1H-benzo[d]imidazole-5-carboxamide] | 18%
